In patent US11548893B2 (priority 2017, dated 2023):
Where two headings read alike, the source gives them in different places.

Columns and labels:
[1] = tested on: EBOV (mucin-deleted glycoprotein, VSV pseudotype); assay: microbe, parasite or virus in culture; format: cell-based, Zaire ebolavirus; conditions: read-out: EC50 Pseudotype Assays EBOV
[2] = tested on: BDBV (mucin-deleted glycoprotein, VSV pseudotype); assay: microbe, parasite or virus in culture; format: cell-based, Bundibugyo ebolavirus; conditions: Vesicular stomatitis virus, Vero, 24 h, read-out: EC50 Pseudotype Assays BDBV
[3] = tested on: SUDV (glycoprotein, VSV pseudotype); assay: microbe, parasite or virus in culture; format: cell-based, Sudan ebolavirus; conditions: Vesicular stomatitis virus, Vero, 24 h, read-out: EC50 Pseudotype Assays SUDV
[4] = microsomes, 1 h
[5] = microsomes, 1 h; remark: listed apart in the source
[6] = microsomes, 1 h; remark: listed apart in the source
[7] = microsomes, 1 h; remark: listed apart in the source
in vitro = conditions: African green monkey, Cytotox CC50
[8] = tested on: EBOV_FL: full-length Ebola Zaire GP (VSV pseudotype); assay: microbe, parasite or virus in culture; format: cell-based, Zaire ebolavirus; conditions: Zaire ebolavirus, Vero, 24 h, read-out: EC50 Pseudotype Assays EBOV_FL
[9] = tested on: MARV (full-length glycoprotein, VSV pseudotype); assay: microbe, parasite or virus in culture; format: cell-based, Marburg marburgvirus; conditions: for EC50: Vesicular stomatitis virus, Vero, 24 h, read-out: EC50 Pseudotype Assays MARV

Compound	EC50 ([1]; Zaire ebolavirus, Vero, 24 h) [µM]	EC50 [2] [µM]	EC50 [3] [µM]	Liver Microsome Stability % Remaining after 60 Minutes, Human [4] [%]	Liver Microsome Stability % Remaining after 60 Minutes, Mouse [5] [%]	Liver Microsome Stability % Remaining after 60 Minutes, Monkey [6] [%]	Liver Microsome Stability % Remaining after 60 Minutes, Guinea Pig [7] [%]	CC50 (in vitro) [µM]	EC50 [8] [µM]	EC50 [9] [µM]	EC50 [1] [µM]	fold more potent against Marburgvirus infection compared to the opposite enantiomer [9] [fold]
CC1(C)CN(C(=O)C23CC4C[C@@](C)(C2)C[C@](c2ccccc2)(C4)C3)CC[C@@H]1N [Example B13]	0.014	0.071	0.04	85	51	32	50	11.3	–	–	–	–
CCC12CC3CC(C(=O)NC4CCNCC4(C)C)(C1)CC(c1ccccc1)(C3)C2 (racemic) [Example A20]	0.042	0.135	0.33	–	–	–	–	5.7	0.03	1.57	–	–
CCC12CC3CC(C(=O)N[C@H]4CC[C@H](CN)CC4)(C1)CC(c1ccccc1)(C3)C2 (mixture of isomers) [Example A22]	0.019	0.185	0.416	–	–	–	–	3.7	0.01	2.8	–	–
C[C@]12CC3CC(C(=O)N4CCC5(CCCN5)CC4)(C1)C[C@@](c1ccccc1)(C3)C2 [Example B10]	0.045	0.071	0.11	–	–	–	–	12.3	0.05	–	–	–
CC12CC3CC(C(=O)N4CCC5(CCCN5)CC4)(C1)CC(c1ccccc1)(C3)C2 (racemic) [Example A38]	0.04	0.104	0.13	–	–	–	–	6.91	0.07	–	–	–
CCC12CC3CC(C(=O)N[C@@H]4CCNC[C@H]4O)(C1)CC(c1ccccc1)(C3)C2 (mixture of isomers) [Example A25]	0.041	0.198	0.795	–	–	–	–	11.8	0.06	8.46	–	–
CC12CC3CC(C(=O)N4CCC(N)CC4)(C1)CC(c1ccccc1)(C3)C2 (racemic) [Example A33]	0.05	0.069	0.3	–	–	–	–	13.7	0.2	–	–	–
C[C@@]12CC3CC(C(=O)N[C@H]4CC[C@H](CN)CC4)(C1)C[C@](c1ccccc1)(C3)C2 [Example C3]	0.073	0.19	0.855	–	–	–	–	5.2	0.03	3.17	–	–
CCC12CC3CC(C(=O)NC4(C)CCNCC4)(C1)CC(c1ccccc1)(C3)C2 (racemic) [Example A26]	0.13	0.333	0.605	–	–	–	–	6.7	0.2	2.57	–	–
CCC12CC3CC(C(=O)N[C@@H]4CCNC[C@H]4F)(C1)CC(c1ccccc1)(C3)C2 (mixture of isomers) [Example A17]	–	0.125	0.255	–	–	–	–	6	0.025	5.91	0.039	–
CCC12CC3CC(C(=O)N[C@H]4CCNC[C@@H]4F)(C1)CC(c1ccccc1)(C3)C2 (mixture of isomers) [Example A19]	0.023	0.261	0.465	–	–	–	–	7.3	0.04	3.44	–	–
C[C@@]12CC3CC(C(=O)N4CCC5(CCCN5)CC4)(C1)C[C@](c1ccccc1)(C3)C2 [Example C10]	0.1	0.085	0.155	–	–	–	–	12.7	0.18	–	–	–
C[C@@]12CC3CC(C(=O)N4CCC(N)CC4)(C1)C[C@](c1ccccc1)(C3)C2 [Example C7]	0.124	0.198	0.335	–	–	–	–	13	0.17	8.2	–	–
C[C@@]12CC3CC(C(=O)N[C@H]4CN5CCC4CC5)(C1)C[C@](c1ccccc1)(C3)C2 [Example C58]	0.785	0.188	1.01	–	–	–	–	10.1	–	0.1	–	16
CC12CC3CC(C(=O)NC4CC5CNC4C5)(C1)CC(c1ccccc1)(C3)C2 (racemic) [Example A30]	0.25	0.7	0.8	–	–	–	–	30	–	5	–	–
CCC12CC3CC(C(=O)N[C@H]4CCN[C@@H](C)C4)(C1)CC(c1ccccc1)(C3)C2 (mixture of isomers) [Example A21]	0.022	0.208	0.415	–	–	–	–	3.9	0.02	6.91	–	–
CC12CC3CC(C(=O)N4CC5(CCNC5)C4)(C1)CC(c1ccccc1)(C3)C2 (racemic) [Example A49]	0.023	0.109	0.2	–	–	–	–	21.9	0.19	–	–	–
C[C@@]12CC3CC(C(=O)N[C@@H]4CCNC[C@H]4F)(C1)C[C@](c1ccccc1)(C3)C2 [Example C5]	0.169	0.109	0.775	–	–	–	–	11.6	–	> 3	–	–
C[C@]12CC3CC(CN4CCC(N)CC4)(C1)C[C@@](c1ccccc1)(C3)C2 [Example B69]	0.429	0.279	0.71	–	–	–	–	4.67	–	0.93	–	–
CC12CC3CC(C(=O)NC4CC5CC4CN5)(C1)CC(c1ccccc1)(C3)C2 (racemic) [Example A31]	> 1	> 1	> 1	–	–	–	–	26	–	> 1	–	–
C[C@]12CC3CC(C(=O)N4CCC(N)C5(CC5)C4)(C1)C[C@@](c1ccccc1)(C3)C2 (stereo partly drawn) [Example B9]	0.025	0.085	0.075	–	–	–	–	8.9	0.06	–	–	–
N[C@H]1CC[C@@H](NC(=O)C23CC4CC(CF)(C2)CC(c2ccccc2)(C4)C3)CC1 (mixture of isomers) [Example A28]	0.062	0.596	1.54	–	–	–	–	32.3	0.14	> 10	–	–
C[C@]12CC3CC(C(=O)N[C@@H]4CCNC[C@H]4F)(C1)C[C@@](c1ccccc1)(C3)C2 [Example B5]	0.019	0.174	0.24	–	–	–	–	11.9	0.02	> 3	–	–
CC12CC3CC(CN[C@H]4CC[C@H](N)CC4)(C1)CC(c1ccccc1)(C3)C2 (stereo partly drawn) [Example A65]	0.28	0.175	0.18	–	–	–	–	1.62	–	0.89	–	–
C[C@]12CC3CC(C(=O)N[C@H]4CCNC[C@@H]4F)(C1)C[C@@](c1ccccc1)(C3)C2 [Example B6]	0.036	0.193	0.32	–	–	–	–	12.2	0.02	> 3	–	–
CCC12CC3CC(C(=O)N[C@@H]4CCNC[C@@H]4F)(C1)CC(c1ccccc1)(C3)C2 (mixture of isomers) [Example A23]	0.041	0.306	0.5	–	–	–	–	7.8	0.02	3.51	–	–
C[C@H]1C[C@@H](NC(=O)C23CC4C[C@](C)(C2)C[C@@](c2ccccc2)(C4)C3)CCN1 [Example C4]	0.078	0.178	1.02	–	–	–	–	14	0.03	> 3	–	–
